Here are results for 38 compounds from EP4763839A1 (Pamplona Therapeutics (Shenzhen) Co., Ltd., priority 2023, dated 2025).

The assay addresses T1, IRAK4 (Homo sapiens, UniProt Q9NWZ3).
T1 sequence (Q9NWZ3 1-460): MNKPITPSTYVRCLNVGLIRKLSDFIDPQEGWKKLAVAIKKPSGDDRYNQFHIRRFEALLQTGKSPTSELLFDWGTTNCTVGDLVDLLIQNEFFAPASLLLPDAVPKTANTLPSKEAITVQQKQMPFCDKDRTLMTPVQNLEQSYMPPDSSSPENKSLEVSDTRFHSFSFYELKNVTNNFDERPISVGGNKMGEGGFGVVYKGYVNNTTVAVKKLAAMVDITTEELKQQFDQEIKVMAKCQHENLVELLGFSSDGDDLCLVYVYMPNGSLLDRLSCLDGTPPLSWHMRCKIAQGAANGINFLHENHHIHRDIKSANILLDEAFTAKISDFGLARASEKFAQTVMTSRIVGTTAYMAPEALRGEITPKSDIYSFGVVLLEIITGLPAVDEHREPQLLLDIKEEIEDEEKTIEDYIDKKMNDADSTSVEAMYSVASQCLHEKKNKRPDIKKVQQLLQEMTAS
Briefly: Assay for inhibitory effect of compound on IRAK4 kinase activity (KinEASE-STK S1 HTRF kit). It counts as biochemical. On the procedure: Example 1: Kinase activity assay
Assay for inhibitory effect of compound on IRAK4 kinase activity
The inhibitory effect of the compound on IRAK4 kinase activity was measured using the KinEASE-STK S1 serine/threonine kinase kit (Cisbio). The specific method was as follows: the compound was dissolved in dimethyl sulfoxide and then subjected to 3-fold serial dilution in dimethyl sulfoxide, yielding final test compound concentrations in the reaction system ranging from 5,000 nM to 0.0254 nM. The kinase at a final concentration of 8 nM was added, followed by incubation at rt for 15 minutes. Subsequently, biotinylated STK1 substrate at a final concentration of 400 nM and adenosine triphosphate (ATP) at a final concentration of 80 µM were sequentially added, and the mixture was incubated at 37°C for 90 minutes. Then, the reaction was terminated by adding an anti-phosphoserine/threonine antibody conjugated with a europium cryptate and streptavidin-conjugated XL665 to the reaction system. After incubation at rt for 1 hour, the fluorescence intensity at emission wavelengths of 620 nm and 665 nm for each well was measured using an EnVision microplate reader (PerkinElmer) in HTRF mode. The ratio value was calculated using the formula: Ratio = (665 nm/620 nm)×10^4 The inhibition rate of the compound at each concentration was calculated using the formula: Inhibition% = [1-(Signal sample-Signal min)/(Signal max-Signal min)]×100. Subsequently, the dose-response curve was fitted by nonlinear curve fitting of log concentration versus inhibition rate using Fit Modela (205) in XLfit to give the IC50 value of the compound for inhibition of protein activity.
(Time-resolved FRET reads energy transfer from a long-lived donor to a nearby acceptor.)

[1] abbreviates: kinase 8 nM, ATP 80 µM, 37°C 90 minutes, read-out: IRAK4 HTRF IC50.

In general, IC50 refers to the concentration that gives 50% inhibition.

Where two headings read alike, the source gives them in different places.

On to `CC(C)(O)c1nn(-c2ccccc2)cc1NC(=O)c1cccc(-c2ccn[nH]2)n1` [Compound A240, N-(3-(2-Hydroxypropan-2-yl)-1-phenyl-1H-pyrazol-4-yl)-6-(1H-pyrazol-5-yl)picolinamide], for which the IC50 under setting [1] is less than 100 nM.

Turning to `NC(=O)c1cn(-c2ccccc2)nc1NC(=O)c1cccc(C(F)(F)F)n1` [Compound A4], the IC50 under setting [1] is greater than 1000 nM.

For the compound `NC(=O)c1nn(C2CCC2)cc1NC(=O)c1ccn2ncc(-c3ccn[nH]3)c2n1` [Compound A280, N-(3-carbamoyl-1-cyclobutyl-1H-pyrazol-4-yl)-3-(1H-pyrazol-5-yl)pyrazolo[1,5-a]pyrimidine-5-carboxamide], under setting [1], the half-maximal inhibitory concentration (IC50) lay in the range of 100 to 1000 nM.

As to `N#Cc1cnn2c(C(=O)Nc3cn(-c4ccccc4)nc3C(N)=O)ccc2c1` [Compound A231], under setting [1], the concentration for half-maximal inhibition (IC50) was less than 100 nM.

As for `O=C(Nc1cn(-c2ccccc2)nc1C(=O)NC1CC1(F)F)c1cccc(-c2ccn[nH]2)n1` (centres unmarked) [Compound A251, N-(3-((2,2-Difluorocyclopropyl)carbamoyl)-1-phenyl-1H-pyrazol-4-yl)-6-(1H-pyrazol-5-yl)picolinamide], under setting [1], the half-maximal inhibitory concentration (IC50) is less than 100 nM.

Take `N#Cc1cnn2c(C(=O)Nc3cn(C4CC5(CCNCC5)C4)nc3C(F)F)ccc2c1` [Compound A229, 3-Cyano-N-(3-(difluoromethyl)-1-(7-azaspiro[3.5]nonan-2-yl)-1H-pyrazol-4-yl)pyrrolo[1,2-b]pyridazine-7-carboxamide]: the concentration for half-maximal inhibition (IC50) under setting [1] was less than 100 nM.

For the compound `COc1nn(C2CCCCC2)cc1NC(=O)c1cccc(-c2ccn[nH]2)n1` [Compound A263, N-(1-Cyclohexyl-3-methoxy-1H-pyrazol-4-yl)-6-(1H-pyrazol-5-yl)picolinamide], the half-maximal inhibitory concentration (IC50) under setting [1] lay in the range of 100 to 1000 nM.

With `N#Cc1cnn2c(C(=O)Nc3cn(-c4ccccc4)nc3C(F)F)ccc2c1` [Compound A233, 3-Cyano-N-(3-(difluoromethyl)-1-phenyl-1H-pyrazol-4-yl)pyrrolo[1,2-b]pyridazine-7-carboxamide], the half-maximal inhibitory concentration (IC50) under setting [1] was less than 100 nM.

In the case of `NC(=O)c1nn(-c2ccccc2)cc1NC(=O)c1cccc(-c2cn[nH]c2)n1` [Compound A89], the IC50 under setting [1] was less than 100 nM.

Regarding `O=C(Nc1cn(-c2ccccc2)nc1OCC(F)(F)F)c1cccc(-c2ccn[nH]2)n1` [Compound A238, N-(1-Phenyl-3-(2,2,2-trifluoroethoxy)-1H-pyrazol-4-yl)-6-(1H-pyrazol-5-yl)picolinamide], under setting [1], the concentration for half-maximal inhibition (IC50) is less than 100 nM.

For `COc1nn(-c2ccccc2)cc1NC(=O)c1cccc(C(=O)c2cn[nH]c2)n1` [Compound A262, N-(3-methoxy-1-phenyl-1H-pyrazol-4-yl)-6-(1H-pyrazole-4-carbonyl)picolinamide], the IC50 under setting [1] is less than 100 nM.

For the compound `CS(=N)(=O)c1cn(-c2ccccc2)nc1NC(=O)c1cccc(C(F)(F)F)n1` (centres unmarked) [Compound A60], the IC50 is greater than 1000 nM.

Turning to `N#Cc1cnn2c(C(=O)Nc3cn(C4CCCCC4)nc3C(N)=O)ccc2c1` [Compound A235], the IC50 under setting [1] is less than 100 nM.

Regarding `NC(=O)c1nc(-c2ccccc2)sc1NC(=O)c1cccc(C(F)(F)F)n1` [Compound A56, 2-Phenyl-5-(6-(trifluoromethyl)picolinamido)thiazole-4-carboxamide], the IC50 under setting [1] was greater than 1000 nM.

In the case of `O=C(Nc1cn(-c2ccccc2)nc1C1CC1)c1cccc(C(F)(F)F)n1` [Compound A71, N-(3-cyclopropyl-1-phenyl-1H-pyrazol-4-yl)-6-(trifluoromethyl)picolinamide], the IC50 under setting [1] was greater than 1000 nM.

In the case of `NC(=O)c1nn(-c2ccc(C(=O)O)nc2)cc1NC(=O)c1cccc(C(F)(F)F)n1` [Compound A31], the concentration for half-maximal inhibition (IC50) is 100 to 1000 nM.

As to `NC(=O)c1nn(-c2ccc(N3CCN(C(=O)c4ccccc4)CC3)cc2)cc1NC(=O)c1cccc(C(F)(F)F)n1` [Compound A28], the IC50 under setting [1] was less than 100 nM.

As to `NC(=O)c1nn(C2CCN(CCN3CCN(c4ccc5c(c4)C(=O)N(C4CCC(=O)NC4=O)C5=O)CC3)CC2)cc1NC(=O)c1cccc(C(F)(F)F)n1` (centres unmarked) [Compound A109], the half-maximal inhibitory concentration (IC50) under setting [1] lay within 100 to 1000 nM.

`CC(C)(O)c1nn(C2CCC2)cc1NC(=O)c1ccn2ncc(-c3ccn[nH]3)c2n1` [Compound A281, N-(1-cyclobutyl-3-(2-hydroxypropan-2-yl)-1H-pyrazol-4-yl)-3-(1H-pyrazol-5-yl)pyrazolo[1,5-a]pyrimidine-5-carboxamide]: the concentration for half-maximal inhibition (IC50) under setting [1] was in the range of 100 to 1000 nM.

In the case of `CC(C)NS(=O)(=O)c1nn(-c2ccccc2)cc1NC(=O)c1cccc(-c2ccn[nH]2)n1` [Compound A249, N-(3-(N-Isopropylsulfamoyl)-1-phenyl-1H-pyrazol-4-yl)-6-(1H-pyrazol-5-yl)picolinamide], the half-maximal inhibitory concentration (IC50) under setting [1] is 100 to 1000 nM.

With `CN(C)C(=O)c1ccc(-n2cc(NC(=O)c3cccc(C(F)(F)F)n3)c(C(N)=O)n2)cc1` [Compound A15], the IC50 under setting [1] was less than 100 nM.

Consider `O=C(Nc1cn(C2CCC2)nc1C(=O)NC1CC1)c1cccc(-c2ccn[nH]2)n1` [Compound A252, N-(1-Cyclobutyl-3-(cyclopropylcarbamoyl)-1H-pyrazol-4-yl)-6-(1H-pyrazol-5-yl)picolinamide], for which the IC50 under setting [1] is less than 100 nM.

With `COc1nn(C2CCC2)cc1NC(=O)c1cnn2ccc(-c3ccn[nH]3)nc12` [Compound A288, N-(1-cyclobutyl-3-methoxy-1H-pyrazol-4-yl)-5-(1H-pyrazol-5-yl)pyrazolo[1,5-a]pyrimidine-3-carboxamide], the IC50 under setting [1] is less than 100 nM.

In the case of `NC(=O)c1nn(-c2ccc(C(=O)O)c(F)c2)cc1NC(=O)c1cccc(C(F)(F)F)n1` [Compound A17], under setting [1], the IC50 is 100 to 1000 nM.

In the case of `O=C(Nc1cn(-c2ccccc2)nc1C(=O)C(F)(F)F)c1cccc(-c2ccn[nH]2)n1` [Compound A243, N-(1-Phenyl-3-(2,2,2-trifluoroacetyl)-1H-pyrazol-4-yl)-6-(1H-pyrazol-5-yl)picolinamide], under setting [1], the IC50 was less than 100 nM.

With `NC(=O)c1nn(-c2ccc(C(=O)N3CC(CNc4ccc5c(c4)C(=O)N(C4CCC(=O)NC4=O)C5=O)C3)cc2)cc1NC(=O)c1cccc(C(F)(F)F)n1` (centres unmarked) [Compound A110], the IC50 under setting [1] was less than 100 nM.

In the case of `NS(=O)(=O)c1nn(-c2ccccc2)cc1NC(=O)c1cccc(-c2c[nH]cn2)n1` [Compound A94, 6-(1H-imidazol-4-yl)-N-(1-phenyl-3-sulfamoyl-1H-pyrazol-4-yl)picolinamide], the IC50 under setting [1] was less than 100 nM.

Take `[2H]C([2H])C(=O)c1nn(-c2ccccc2)cc1NC(=O)c1cccc(-c2ccn[nH]2)n1` [Compound A242, N-(3-(Acetyl-2,2-d2)-1-phenyl-1H-pyrazol-4-yl)-6-(1H-pyrazol-5-yl)picolinamide]: the 50% inhibitory concentration (IC50) under setting [1] was less than 100 nM.

Take `CC(=O)c1nn(-c2ccccc2)cc1NC(=O)c1cccc(-c2ccn[nH]2)n1` [Compound A241, N-(3-Acetyl-1-phenyl-1H-pyrazol-4-yl)-6-(1H-pyrazol-5-yl)picolinamide]: under setting [1], the IC50 is less than 100 nM.

Regarding `N#Cc1cnn2c(C(=O)Nc3cn(C4CCCCC4)nc3C(F)F)ccc2c1` [Compound A266, 3-cyano-N-(1-cyclohexyl-3-(difluoromethyl)-1H-pyrazol-4-yl)pyrrolo[1,2-b]pyridazine-7-carboxamide], under setting [1], the 50% inhibitory concentration (IC50) is 100 to 1000 nM.

In the case of `NC(=O)c1nn(-c2ccccc2)cc1NC(=O)c1cccc(-c2cc[nH]c2)n1` [Compound A91], the IC50 under setting [1] lay within 100 to 1000 nM.

As to `CNC(=O)c1ccc(-n2cc(NC(=O)c3cccc(C(F)(F)F)n3)c(C(N)=O)n2)cc1` [Compound A14], the IC50 under setting [1] is less than 100 nM.

Take `CC(C)(O)c1nn(-c2ccccc2)cc1NC(=O)c1cccc(C(F)(F)F)n1` [Compound A46, N-(3-(2-hydroxypropan-2-yl)-1-phenyl-1H-pyrazol-4-yl)-6-(trifluoromethyl)picolinamide]: the IC50 under setting [1] fell in the range of 100 to 1000 nM.

On to `NS(=O)(=O)c1nn(C2CCC2)cc1NC(=O)c1cnn2ccc(-c3ccn[nH]3)nc12` [Compound A293, N-(1-cyclobutyl-3-sulfamoyl-1H-pyrazol-4-yl)-5-(1H-pyrazol-5-yl)pyrazolo[1,5-a]pyrimidine-3-carboxamide], for which, under setting [1], the 50% inhibitory concentration (IC50) is less than 100 nM.

On to `CN1CCN(c2ccc(-n3cc(NC(=O)c4cccc(C(F)(F)F)n4)c(C(N)=O)n3)cc2)CC1` [Compound A26], for which, under setting [1], the IC50 is less than 100 nM.

On to `NC(=O)c1nn(C2CCNCC2)cc1NC(=O)c1cccc(C(F)(F)F)n1` [Compound A3], for which the concentration for half-maximal inhibition (IC50) under setting [1] lay in the range of 100 to 1000 nM.

Take `NC(=O)c1cn(-c2ccccc2)cc1NC(=O)c1cccc(C(F)(F)F)n1` [Compound A47]: the IC50 under setting [1] was less than 100 nM.

Consider `CS(=N)(=O)c1nn(-c2ccccc2)cc1NC(=O)c1cccc(-c2c[nH]cn2)n1` (centres unmarked) [Compound A98, 6-(1H-imidazol-4-yl)-N-(3-(S-methylsulfonimidoyl)-1-phenyl-1H-pyrazol-4-yl)picolinamide], for which, under setting [1], the half-maximal inhibitory concentration (IC50) was 100 to 1000 nM.
